Results reported in PubChem BioAssay (NCI).
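Where inhibition never reached the appropriate level, the endpoint shown equals the highest concentration tested. Otherwise, values were interpolated linearly from a five-concentration, 48-hour dose response in 96-well plates. Abbreviation: GI50, concentration required for 50% inhibition of growth. TGI denotes the concentration required for complete inhibition of growth.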

Key:
Experiment in all cases: inhibition of tumour cell growth, NCI panel, 48 h
[1] = system: TK-10 renal
[2] = system: NCI/ADR-RES ovarian
[3] = system: EKVX NSCLC
[4] = system: BT-549 breast
[5] = system: NCI-H226 lung
[6] = system: CAKI-1 renal
[7] = system: UACC-62 melanoma
[8] = system: SK-MEL-28 melanoma
[9] = system: MOLT-4 leukemia
[10] = system: SF-268 CNS

SMILES | GI50 [1] [µM] | TGI [1] [µM] | GI50 [2] [µM] | TGI [2] [µM] | GI50 [3] [µM] | TGI [3] [µM] | GI50 [4] [µM] | TGI [4] [µM] | GI50 [5] [µM] | TGI [5] [µM] | GI50 [6] [µM] | TGI [6] [µM] | GI50 [7] [µM] | TGI [7] [µM] | GI50 [8] [µM] | TGI [8] [µM] | GI50 [9] [µM] | TGI [9] [µM] | GI50 [10] [µM] | TGI [10] [µM]
CCCCN(CCCC)c1ccc(C(=NC(C)CCCN(CC)CC)c2ccc(N(C)C)cc2)cc1 (centres undefined) | 1.34 | 3.99 | 0.893 | 1.94 | 1.05 | 2.95 | 0.838 | 1.73 | 1.18 | 3.06 | 1.17 | 3.41 | 0.909 | 1.91 | 0.939 | 1.92 | 0.865 | 2.18 | 0.864 | 2.06
COCCNc1cc(NC(=O)N2CCCc3cc(CN4CCN(C)CC4=O)c(C=O)nc32)ncc1C#N | > 50 | > 50 | > 50 | > 50 | > 50 | > 50 | > 50 | > 50 | > 50 | > 50 | > 50 | > 50 | > 50 | > 50 | > 50 | > 50 | > 50 | > 50 | > 50 | > 50
Nc1ccc(-c2ccc(N)cc2I)c(I)c1 | 22.8 | 80.7 | 19 | 70 | 19.1 | 70.1 | 13.8 | 36.1 | 17.2 | 45.4 | 14.5 | 42.9 | 12.1 | 33.2 | 14.1 | 38.6 | 9.89 | 43.6 | 20 | > 100
S=C(Nc1cc(Cl)c(Cl)cc1Cl)SCc1ccccc1 |  | 53.8 |  | 54.6 |  | > 100 |  | 65.8 |  | 42.4 |  | 44 |  | > 100 |  | > 100 |  | 76.4 |  | > 100
O=C(OCCBr)c1ccc(Cl)c([N+](=O)[O-])c1 | > 51.1 | > 86.8 | 21.4 | 53.1 | 18.4 | 37.1 | 18.1 | 33.1 | 17.7 | 37.6 | 7.78 | 23.1 | 14.5 | 28.5 | 2.51 | 5.42 | 23.7 | 55.3 | 5.44 | 10.3
COc1cc(C2C3=C(COC3=O)Nc3cc4c(cc32)CCC4)cc2c1OCO2 (centres undefined) | 10.1 | 32.4 | 0.0345 | 0.881 | 0.486 | 43.3 | 0.311 | 42.2 | 0.0391 | 1.6 | 0.157 | 38.7 | 0.051 | 17.7 | 0.0691 | 24.4 | 0.0496 | 15.6 | 0.0558 | 6.58
CCOc1ccccc1/C=N\N=C(\N)N/N=C/c1ccccc1OCC | 6.16 | > 100 | 2.62 | > 100 | 4.59 | > 100 | 5.08 | > 100 | 5.55 | > 100 | 4.12 | > 100 | 0.914 | > 100 | 4.51 | > 100 | 3.33 | > 100 | 3.11 | > 100
CC(C)c1ccc(Nc2nccc(-c3cnn4ncccc34)n2)cc1 | 0.59 | 3.17 | 0.584 | 5.27 | 0.64 | 10.2 | 0.967 | > 25 | 0.227 | 2.45 | 0.8 | > 15.4 | 0.326 | 1.13 | 0.422 | 1.6 | 0.888 | 4.19 | 0.692 | 4.42
CCCc1cc(=O)n2c(C(=O)Nc3ccccc3OC)c(C(=O)Nc3ccc(F)cc3)sc2n1 | 26 | 64.3 | 39.2 | > 160 | 30.7 | > 160 | 31 | 71.1 | 0.802 | 6.96 | 35.3 | > 160 | 4.24 | 22.7 | 22 | 61.8 | 19.8 | 57.3 | 14.3 | 38
CC1(C)CC[C@]2(C(=O)N3CCOCC3)CC[C@]3(C)C(=CC[C@@H]4[C@@]5(C)C/C(=C/c6ccncc6)C(=O)C(C)(C)[C@@H]5CC[C@]43C)[C@@H]2C1 | 6.46 | > 100 | 2.5 | 46.4 | 2.87 | > 100 | 1.39 | 10 | 2.09 | 9.22 | 1.07 | > 100 | 1.36 | 40.9 | 1.84 | 5.41 | 0.787 | > 100 | 6.33 | > 100
CN(C)CC1CCCCCC(CN(C)C)C1=O (centres undefined) | 0.852 | 2.13 | 3.39 | 14.3 | 12.5 | 37.3 | 3.46 | 15.9 | 9.98 | 33.3 | 1.49 | 3.12 | 8.12 | 22.9 | 3.65 | 10.5 | 2 | 5.51 | 7.72 | 23.4
CCNCCNc1cc(C2CCCCC2)c(C#N)c2nc3ccccc3n12 | 2.41 | 6.12 | 2.35 | 6.82 | 2.18 | 6.84 | 1.77 | 3.64 | 1.71 | 3.32 | 1.82 | 3.91 | 1.9 | 3.75 | 1.7 | 3.36 | 2.04 | 4.97 | 1.9 | 4.38
Nc1cc(N)c2nc(-c3ccccc3)c(NCc3ccc(F)cc3)nc2c1 | 5.83 | 19.8 | 2.46 | 5.76 | 1.89 | 4.07 | 1.69 | 3.26 | 22.4 | 47.7 | 15.3 | 37.1 | 15.4 | 29.5 | 1.9 | 3.77 | > 100 | > 100 | 2.81 | 7.54
CCCCCCCOc1c(OC)cc(C2CC(=O)Nc3c2c(C)nn3-c2nc3ccccc3[nH]2)cc1OC (centres undefined) | 3.12 | > 100 | 3.83 | > 100 | 2.54 | 8.15 | 3.4 | 47.5 | 2.1 | 4.56 | 1.92 | 4.25 | 2.54 | 7.3 | 2.77 | 8.61 | 2.8 | 7.72 | 2.12 | 6.68
CCN(CC)c1ccc(C(=N)c2ccc(N(C)C)cc2)cc1 | 2.41 | 8.02 | 0.187 | 2.94 | 2.04 | 16.5 | 0.227 | 0.966 | 1.5 | 5.46 | 0.246 | 7.73 | 1.35 | 7.03 | 0.384 | 7.13 | 1.17 | 4.55 | 0.22 | 5.42
O=C(CCCSc1nc(-c2ccccc2)cc(-c2ccc(Cl)cc2)n1)NO | 0.773 | 12.3 | 0.351 | 2.58 | 1.8 | 11.5 | 3.46 | 17.6 | 3.12 | 17.1 | 0.355 | 9.36 | 1.45 | 3.89 | 3.51 | 15.3 | 1.51 | 10.6 | 1.88 | 7.14
Nc1n[nH]c2ccc([C@@H]3Nc4ccc5[nH]ncc5c4[C@H]4C5C=CC(C5)[C@@H]34)cc12 (some centres undefined) | 12 | > 100 | 0.298 | 2.28 | 0.505 | 43.2 | 0.32 | 7.05 | 0.636 | 10.6 | 0.23 | 21.6 | 0.213 | 18.5 | 1.59 | 31.9 | 0.433 | 40.7 | 1.36 | 31.5
CS(=O)(=O)Nc1ccc(N=Cc2c(O)[nH]c3ccccc23)cc1 | > 25 | > 25 | > 25 | > 25 | > 25 | > 25 | > 25 | > 25 | > 25 | > 25 | > 13.9 | > 25 | > 25 | > 25 | > 25 | > 25 | > 25 | > 25 | > 25 | > 25
CN(C(=O)c1ccncc1)c1ccccc1 |  | > 100 |  | > 100 |  | > 100 |  | > 100 |  | > 100 |  | > 100 |  | > 100 |  | > 100 |  | > 100 |  | > 100
CSC1(SC2=NCCN2)SC2(NCCN2)S1 |  | 18.6 |  | > 91.6 |  | 40.5 |  | 54.9 |  | 56.7 |  | 27 |  | 32.7 |  | 40.1 |  | 52.9 |  | 40.3
CC(C)(C#N)c1cc(C(=O)Nc2cc(Nc3ncccc3-c3ncnc4nc[nH]c34)ccc2F)cc(C(F)(F)F)c1 |  | > 4.17 | 1.62 | > 10 |  | > 6.56 |  | > 2.3 | 0.289 | > 6.4 | 1.14 | > 3.55 | 0.0871 | 0.788 | 0.107 |  |  | > 6.2 |  | > 10
Cn1cc(-c2ccc(-c3cn(C)c4ccc(Cl)cc34)s2)c2cc(Cl)ccc21 | > 100 | > 100 | > 100 | > 100 | > 100 | > 100 | > 100 | > 100 | > 100 | > 100 | > 100 | > 100 | > 100 | > 100 | > 100 | > 100 | > 100 | > 100 | > 100 | > 100
O=C(CN1CCN(c2ccccc2)CC1)N1CCN(c2nnc(-c3ccc(Cl)cc3)c(-c3ccc(Cl)cc3)n2)CC1 | 5.97 | > 100 | 8.05 | > 100 | 21.6 | > 100 | 4.34 | 63.6 | > 100 | > 100 | 13.5 | > 100 | 15.9 | > 100 | 56.2 | > 100 | 1.63 | 9.97 | 14.9 | > 100
c1ccc(CSc2nnc3c4ccccc4c4ccccc4c3n2)cc1 |  | 84.5 |  | > 100 |  | > 100 |  | > 100 |  | > 100 |  | > 100 |  | > 100 |  | > 100 |  | > 100 |  | 67.9
Cc1ccc2c(c1)C(=O)c1c-2n(CCCBr)c(=O)c2cc([N+](=O)[O-])ccc12 | > 100 | > 100 | 54.7 | > 100 | > 100 | > 100 | > 100 | > 100 | 96.9 | > 100 | 5.28 | 32.6 | 26.1 | > 100 | > 100 | > 100 | 26.6 | > 100 | 46.9 | > 100
COc1ccc2c(c1)C(C)Cc1c(Cl)nc(C)nc1N2C (centres undefined) | 4.55 | 38.8 | 1.7 | 16.7 | 3.01 | 30.7 | 2.22 | 12.3 | 5.83 | 40.3 | 2.56 | > 100 | 0.665 | 36.2 | 3.4 | 38.5 | 5.01 | > 100 | 2.6 | 18.6
